Results as given in US5262157A (priority 1988, dated 1993).

What was measured:
[1] = system: African trypanosomiasis (sleeping sickness); conditions: cited from earlier work
in vivo [2] = conditions: rat, im, 4 mg/kg, level in the lungs
in vivo [3] = assay: in vivo
Procedure: The dose was calculated from the product of the concentration of the drug in the chamber, the minute volume of the rats (lung vol.×resp. rate), and the time of exposure. In all experiments exposure time was 15 min, male Sprague-Dawley rats with an average weight of 250 g were used, and the minute volume of the rats was assumed to be 70 ml. Rats were treated in groups of four. […] The aerosol was generated by oxygen flowing at 8 l/min through the nebulizer (Cadema Medical Products, part no. CA 61, Middletown, N.Y.). The drug solution was aerosolized at 0.3 ml/min with an expected mean particle diameter of 0.5-0.8 micron. […] This concentration multiplied by the minute volume and the exposure time gives a dose of 1.0 mg; since the rats weighed 0.25 kg, the dose was 4.0 mg/kg. Doses in all trials were calculated as above.
Four rats were studied at each time.

[4] = Pentamidine tissue concentrations in humans after intravenous infusions; conditions: human, IV 4.0 mg/kg/day
Pneumocystis carinii = conditions: animal model of PCP; cited from earlier work
[5] = rat, in vivo, inhaled or intranasal, 4 mg/kg

## N=C(N)c1ccc(OCCCCCOc2ccc(C(=N)N)cc2)cc1 [pentamidine, Pentamidine isethionate]
[1]; human volunteers, weekly bites from infected tse-tse flies
  resistance to infection after a single IM dose: resisted infection for one year or more
[1]; human
  chemoprophylaxis of African trypanosomiasis: effective in the chemoprophylaxis of African trypanosomiasis
[1]; twice-yearly IV or IM doses, Africa
  elimination of infection in endemic areas: eliminated the infection in endemic areas
In vivo [2]
  concentration at 24 h: 800 ng/g
In vivo [3]; rat, in vivo, 4 mg/kg
  amount retained per animal: 60 µg
  fraction of inhaled drug retained: about 6.0%
  retained dose: 0.24 mg/kg
In vivo [3]; [5]
  amount of drug retained in the lungs: about 40 mcg/g
  half-life: 36 days
In vivo [3]; single aerosol dose
  retention in the lungs: retained in the lungs for many weeks
[4]; 1 dose
  Pentamidine concentration, Adrenal: 19 µg/g
  Pentamidine concentration, Kidney: 8.5 µg/g
  Pentamidine concentration, Liver: 35 µg/g
  Pentamidine concentration, Spleen: 40 µg/g
[4]; 2 doses
  Pentamidine concentration, Kidney: 13 µg/g
  Pentamidine concentration, Liver: 23 µg/g
  Pentamidine concentration, Spleen: 40 µg/g
[4]; 5 doses
  Pentamidine concentration, Kidney: 62 µg/g
  Pentamidine concentration, Liver: 112 µg/g
  Pentamidine concentration, Lung: 42 µg/g
  Pentamidine concentration, Spleen: 28 µg/g
[4]; 15 doses
  Pentamidine concentration, Adrenal: 92 µg/g
  Pentamidine concentration, Kidney: 123 µg/g
  Pentamidine concentration, Liver: 300 µg/g
  Pentamidine concentration, Lung: 56 µg/g
  Pentamidine concentration, Spleen: 368 µg/g
Pneumocystis carinii
  prophylaxis of PCP with IV or IM pentamidine: unsuccessful in the animal model of PCP
